# Results from patent US20190209451A1, “SOLUBILIZING AGENTS FOR UV FILTERS IN COSMETIC FORMULATIONS” (BASF SE, priority 2016, published 2019).
# Test: Determination of the solubility of organic UV filters in levulynates used as solvents
# Assay type: physicochemical
# Settings: UV filter dissolved in the named levulynate as solvent; stirred seven days at 25° C.; UV/Vis-spectrometry
# Description: Afterwards 0.02 g (1%) of the respective substance are weighed and added to the solvent. The vial is placed into a thermostated waterbath, where the suspension/solution is stirred during seven days at 25° C. If the amount of substance put into the solvent is fully soluble, additional substance is added until precipitation can be observed. After seven days, the sample is centrifuged for 30 minutes at 13000 rpm. The supernatant is transferred into a small beaker. In case the sample is still turbid, it is filtered through a 0.2 μm non-steril Membrex 25 PET filter. Clear solutions must not be filtered. When a clear solution is obtained, the concentration of the substance is determined with UV/Vis-spectrometry. For this purpose the sample may be diluted with a suitable solvent or, in case of lower concentrations, may be measured as is. If the test solvent is water, further dilution is done with water. If the test solvent is volatile, the same solvent is taken for dilution. If the test solvent is a cosmetic emollient, dioxane is used for further dilution. In order to evaluate the concentration from the UV-spectroscopic results, the extinction coefficient is needed, which is determined independently with a solvent of similar polarity like that one used for dilution of the saturated solutions. The solubility can be calculated using the equation of the Lambert-Beer-Law: [formula] • c=concentration (mol/l) • E=extinction measured at λ max. • f=dilution factor • ε=extinction coefficient at λmax [I/(mol/cm)] • d=optical pathlength [cm] Due to spectra overlapping the solubility of some crystalline UV filters in liquid UV filters cannot be determined exactly by UV spectroscopy. In this case solubilities are determined via HPLC with reversed phase C-18 columns and UV-detectors.
SMILES,Solubility of Bis-Ethylhexyloxyphenol Methoxyphenyl Triazine,Solubility of Diethylamino Hydroxybenzoyl Hexyl Benzoate,Solubility of Ethylhexyl Triazone
"CCCCCCCCCCOC(=O)CCC(C)=O [C10-levulynate, levulinic acid decyl ester]",9.1 w/%,31.0 w/%,21.0 w/%
"CCCCCCCCOC(=O)CCC(C)=O [C8-levulynate, levulinic acid octyl ester]",10.4 w/%,42.6 w/%,25.1 w/%
CCCCC(CC)COC(=O)CCC(C)=O (centres unmarked) [2-Ethylhexyl-levulynate],6.5 w/%,33.4 w/%,–
"CCCCCCCCCCCCOC(=O)CCC(C)=O [C12-Levulynate, levulinic acid dodecyl ester]",3.0 w/%,29.1 w/%,11.7 w/%
